Key:
Viola tricolor [1] = test: Pre-emergence herbicidal action; type: in vivo; settings: after about 3 weeks
Description: (§1) Seeds of monocotyledonous and dicotyledonous weed plants and crop plants were placed in plastic or organic planting pots and covered with soil. The compounds of the invention, formulated in the form of wettable powders (WP) or as emulsion concentrates (EC), were then applied onto the surface of the covering soil as aqueous suspension or emulsion with addition of 0.5% additive at a water application rate of 600 l/ha (converted). After the treatment, the pots were placed in a greenhouse and kept under good growth conditions for the test plants. After about 3 weeks, the effect of the preparations was scored visually in comparison with untreated controls as percentages. For example, 100% activity=the plants have died, 0% activity=like control plants. Tables B1 to B15 below show the effects of selected compounds of the general formula (I) according to Tables I.1 to I.44 on various harmful plants and an application rate corresponding to 1280 g/ha or 320 g/ha, which were obtained by the experimental procedure mentioned above.

Abutilon theophrasti [2] = test: Pre-emergence herbicidal action; type: in vivo; settings: 1280 g/ha, after about 3 weeks
Description: as §1

Setaria viridis [3] = test: Pre-emergence herbicidal action; type: in vivo; settings: 1280 g/ha, after about 3 weeks; for pest or weed control at 1280 g/ha: Setaria viridis, 504 h, read-out: Setaria viridis, herbicidal effect scored visually
Description: as §1

Stellaria media [4] = test: Pre-emergence herbicidal action; type: in vivo; settings: after about 3 weeks
Description: as §1

Polygonum convolvulus [5] = test: Pre-emergence herbicidal action; type: in vivo; settings: 1280 g/ha, after about 3 weeks
Description: as §1

Alopecurus myosuroides = test: Pre-emergence herbicidal action; type: in vivo; settings: 1280 g/ha, after about 3 weeks
Description: as §1

Matricaria inodora [6] = test: Pre-emergence herbicidal action; type: in vivo; settings: after about 3 weeks; for pest or weed control at 1280 g/ha / Matricaria inodora, herbicidal effect scored visually: 1280 g/ha
Description: as §1

Viola tricolor [7] = test: Post-emergence herbicidal action; type: in vivo; settings: 504 h, about 3 weeks after treatment, read-out: Viola tricolor, herbicidal activity rated visually
Method: (§2) Seeds of monocotyledonous and dicotyledonous weeds and crop plants were placed in sandy loam in plastic or wood-fiber pots, covered with soil and cultivated in a greenhouse under controlled growth conditions. 2 to 3 weeks after sowing, the test plants were treated at the one-leaf stage. The compounds of the invention, formulated in the form of wettable powders (WP) or as emulsion concentrates (EC), were then sprayed onto the green parts of the plants as aqueous suspension or emulsion with addition of 0.5% additive at a water application rate of 600 l/ha (converted). After the test plants had been kept in the greenhouse under optimum growth conditions for about 3 weeks, the activity of the preparations was rated visually in comparison to untreated controls. For example, 100% activity=the plants have died, 0% activity=like control plants. Tables A1 to A12 below show the effects of selected compounds of the general formula (I) according to Tables I.1 to I.44 on various harmful plants and an application rate corresponding to 1280 g/ha or 320 g/ha, which were obtained by the experimental procedure mentioned above.

Abutilon theophrasti [8] = test: Post-emergence herbicidal action; type: in vivo; settings: about 3 weeks after treatment
Method: as §2

Setaria viridis [9] = test: Post-emergence herbicidal action; type: in vivo; settings: about 3 weeks after treatment
Method: as §2

Stellaria media [10] = test: Post-emergence herbicidal action; type: in vivo; settings: about 3 weeks after treatment
Method: as §2

Hordeum murinum = test: Post-emergence herbicidal action; type: in vivo; settings: 1280 g/ha, about 3 weeks after treatment
Method: as §2

Pharbitis purpurea = test: Post-emergence herbicidal action; type: in vivo; settings: about 3 weeks after treatment
Method: as §2

photosystem II (PS II) = biological target: T1, photosystem II (PS II) (Spinacia oleracea, UniProt P69560); test: Measurement of the PS II activity in thylakoid membranes (DCPIP reduction); type: biochemical; settings: 100 μM test compound, spinach thylakoid membranes, DCPIP 120 μM, 10 min at 22° C. with exposure to light; for inhibition at 100 µM (stock): read-out: Effect (inhibition of PS II activity)
T1 construct: the chloroplasts were osmotically ruptured and the thylakoid membranes were then obtained by centrifugation; from tissue; host or cells: fresh spinach leaves; thylakoid membranes isolated from chloroplasts
Method: Cooled fresh spinach leaves were comminuted and homogenized in 50 mM phosphate buffer, pH 6.8. 10 mM KCl, 0.34 M sucrose (sucrose buffer) (blender, 1 g of plant material/ml). The homogenate was subsequently filtered through 4 layers of Miracloth and the chloroplasts were isolated by centrifugation, i.e. 10 min of centrifugation at 4400×g (4° C.). The sediment was suspended in 25 ml of sucrose buffer and re-centrifuged for 10 min at 4400×g (4° C.). The sediment was then suspended in 40 ml of 50 mM phosphate buffer, pH 6.8, 10 mM KCl, without sucrose. In this step, the chloroplasts were osmotically ruptured and the thylakoid membranes were then obtained by centrifugation (10 min, 4400×g, 4° C.). The membrane sediment was finally suspended in 20 ml of 50 mM phosphate buffer, pH 6.8, 10 mM KCl. Following protein determination and activity determination, the membrane suspension was divided into aliquots and frozen in liquid nitrogen. The aliquots were stored at −80° C. Under these conditions, the photosystem II preparation was storage stable for at least three months. The activity determination of photosystem II (PS II) was then carried out using the following test principle:
The electron transfer from PS II to an artificial electron acceptor, 2,6-dichlorophenolindophenol (DCPIP), was measured with exposure to light. The concentration of the blue oxidized form of DCPIP was determined spectrophotometrically at wavelength λ=595 nm. […] The activity determination was carried out in microtiter plates (96 cavities) in a reaction volume of 200 μl. Here, 155 μl of dilute membrane suspension were initially charged in 50 mM of phosphate buffer, pH 6.8, 10 mM KCl. Depending on the activity of the PS II preparation, the dilution was adjusted such that the measurement of the decrease in absorption (λ=595 nm) was linear for at least 10 min. In each case 5 μl solution of the test compounds of a concentration of 100 μM in DMSO were added to the enzyme suspension; controls contained 5 μl DMSO; the final concentration of DMSO in the reaction batch was thus 2.5% (v/v); this concentration had no adverse effect on the enzymatic activity. On each microtiter plate, a known PS II inhibitor, for example metribuzin, was used as standard, which allowed the quality of the PS II test to be assessed. The reaction was started by addition of 40 μl DCPIP solution (600 μM in distilled water); the final concentration of DCPIP was 120 μM. Measurement of absorption was carried out over a period of 10 min at 22° C. and with exposure to light. Using metribuzin as comparative substance, the results for the efficacy of the compounds of the general formula (I) at 100 μM are stated in the table below using the following classification: ++++ (inhibition≥90%), +++ ([…]≥70%), ++ (70%>inhibition≥50%), + (50%>inhibition≥30%).

Poa annua = test: Pre-emergence herbicidal action; type: in vivo; settings: 1280 g/ha, after about 3 weeks
Description: as §1

Amaranthus retroflexus [11] = test: Pre-emergence herbicidal action; type: in vivo; settings: 1280 g/ha, after about 3 weeks
Description: as §1

Lolium rigidum = test: Pre-emergence herbicidal action; type: in vivo; settings: 1280 g/ha, after about 3 weeks
Description: as §1

Polygonum convolvulus [12] = test: Post-emergence herbicidal action; type: in vivo; settings: about 3 weeks after treatment
Method: as §2

Matricaria inodora [13] = test: Post-emergence herbicidal action; type: in vivo; settings: 1280 g/ha, about 3 weeks after treatment
Method: as §2

Veronica persica = test: Post-emergence herbicidal action; type: in vivo; settings: 1280 g/ha, about 3 weeks after treatment
Method: as §2

Amaranthus retroflexus [14] = test: Post-emergence herbicidal action; type: in vivo; settings: 1280 g/ha, about 3 weeks after treatment
Method: as §2

[15] = Viola tricolor, 504 h, 1280 g/ha, read-out: Viola tricolor, herbicidal effect scored visually
[16] = Stellaria media, 504 h, 1280 g/ha, read-out: Stellaria media, herbicidal effect scored visually
[17] = Tripleurospermum inodorum, 504 h, read-out: Matricaria inodora, herbicidal effect scored visually
[18] = Abutilon theophrasti, 504 h, 1280 g/ha, read-out: Abutilon theophrasti, herbicidal activity rated visually
[19] = Setaria viridis, 504 h, 1280 g/ha, read-out: Setaria viridis, herbicidal activity rated visually
[20] = Stellaria media, 504 h, 1280 g/ha, read-out: Stellaria media, herbicidal activity rated visually

Row | Compound | pest or weed control at 1280 g/ha (Viola tricolor [1]; [15]) [%] | pest or weed control at 1280 g/ha (Setaria viridis [3]) [%] | pest or weed control at 1280 g/ha (Stellaria media [4]; [16]) [%] | Polygonum convolvulus, herbicidal effect scored visually (Polygonum convolvulus [5]) [%] | Alopecurus myosuroides, herbicidal effect scored visually (Alopecurus myosuroides) [%] | pest or weed control at 1280 g/ha (Matricaria inodora [6]; [17]) [%] | pest or weed control at 1280 g/ha (Viola tricolor [7]) [%] | pest or weed control at 1280 g/ha (Abutilon theophrasti [8]; [18]) [%] | pest or weed control at 1280 g/ha (Setaria viridis [9]; [19]) [%] | pest or weed control at 1280 g/ha (Stellaria media [10]; [20]) [%] | Pharbitis purpurea, herbicidal activity rated visually (Pharbitis purpurea; 1280 g/ha) [%] | inhibition at 100 µM (stock) (photosystem II (PS II)) [%] | Poa annua, herbicidal effect scored visually (Poa annua) [%] | Amaranthus retroflexus, herbicidal effect scored visually (Amaranthus retroflexus [11]) [%] | Matricaria inodora, herbicidal effect scored visually (Matricaria inodora [6]) [%] | further results
1 | CCCc1nsc(N2C(=O)C(C)=C(C)C2O)n1 (stereo not shown) [I.2-4, 3,4-Dimethyl-5-hydroxy-1-[3-(n-propyl)-1,2,4-thiadiazol-5-yl)-1,5-dihydro-2H-pyrrol-2-one] | 100 | 100 | 100 | 100 | 90 | 100 | 80 | 90 | 100 | 80 | 90 | > 90 |  |  |  | Abutilon theophrasti, herbicidal effect scored visually (Abutilon theophrasti [2]): 80%; Hordeum murinum, herbicidal activity rated visually (Hordeum murinum): 80%
2 | CC1=C(C)C(O)N(c2nc(SCCOC(F)(F)F)ns2)C1=O (stereo not shown) [I.2-338] |  |  |  |  |  |  |  |  |  |  |  |  | 90 | 90 | 90 | Setaria viridis, herbicidal effect scored visually (Setaria viridis [3]): 90%; Stellaria media, herbicidal effect scored visually (Stellaria media [4]; 320 g/ha): 90%; Lolium rigidum, herbicidal effect scored visually (Lolium rigidum): 90%; Abutilon theophrasti, herbicidal activity rated visually (Abutilon theophrasti [8]; 320 g/ha): 100%; Stellaria media, herbicidal activity rated visually (Stellaria media [10]; 1280 g/ha): 90%; Effect (inhibition of PS II activity) (photosystem II (PS II)): ++++ (inhibition≥90%)
3 | COc1nsc(N2C(=O)C(C)=C(C)C2O)n1 (stereo not shown) [I.2-363, 3,4-Dimethyl-5-hydroxy-1-(3-methoxy-1,2,4-thiadiazol-5-yl)-1,5-dihydro-2H-pyrrol-2-one] |  |  |  |  |  |  |  |  |  |  |  | > 90 |  |  |  | pest or weed control at 320 g/ha (Viola tricolor [1]; Viola tricolor, 504 h, 320 g/ha, read-out: Viola tricolor, herbicidal effect scored visually): 80%; pest or weed control at 320 g/ha (Stellaria media [4]; Stellaria media, 504 h, 320 g/ha, read-out: Stellaria media, herbicidal effect scored visually): 100%; pest or weed control at 320 g/ha (Matricaria inodora [6]; Tripleurospermum inodorum, 504 h, 320 g/ha, read-out: Matricaria inodora, herbicidal effect scored visually): 90%; pest or weed control at 320 g/ha (Viola tricolor [7]; 320 g/ha): 100%; pest or weed control at 320 g/ha (Abutilon theophrasti [8]; Abutilon theophrasti, 504 h, 320 g/ha, read-out: Abutilon theophrasti, herbicidal activity rated visually): 90%; pest or weed control at 320 g/ha (Setaria viridis [9]; Setaria viridis, 504 h, 320 g/ha, read-out: Setaria viridis, herbicidal activity rated visually): 100%; pest or weed control at 320 g/ha (Stellaria media [10]; Stellaria media, 504 h, 320 g/ha, read-out: Stellaria media, herbicidal activity rated visually): 90%; Polygonum convolvulus, herbicidal activity rated visually (Polygonum convolvulus [12]; 320 g/ha): 100%; Pharbitis purpurea, herbicidal activity rated visually (Pharbitis purpurea; 320 g/ha): 80%
4 | CC1=C(Cl)C(=O)N(c2nc(C(C)C)ns2)C1O (stereo not shown) [I.3-5, 3-Chloro-4-methyl-5-hydroxy-1-(3-isopropyl-1,2,4-thiadiazol-5-yl)-1,5-dihydro-2H-pyrrol-2-one] |  | 90 | 90 |  |  | 90 |  |  |  | 100 |  |  | 90 |  |  | Matricaria inodora, herbicidal activity rated visually (Matricaria inodora [13]): 100%
5 | CC1=C(Br)C(=O)N(c2nc(C)ns2)C1O (stereo not shown) [I.5-2] |  |  |  | 80 | 80 |  |  |  |  |  |  |  |  |  | 90 | Viola tricolor, herbicidal effect scored visually (Viola tricolor [1]; 1280 g/ha): 90%; Stellaria media, herbicidal effect scored visually (Stellaria media [4]; 1280 g/ha): 90%; Abutilon theophrasti, herbicidal activity rated visually (Abutilon theophrasti [8]; 1280 g/ha): 80%; Setaria viridis, herbicidal activity rated visually (Setaria viridis [9]; 1280 g/ha): 80%
6 | CC(C)c1nsc(N2C(=O)N(C)CC2O)n1 (stereo not shown) [I.13-5, 4-Hydroxy-1-methyl-3-[3-(isopropyl)-1,2,4-thiadiazol-5-yl]imidazolidin-2-one] | 90 | 80 | 90 | 90 |  | 90 | 100 | 100 | 100 | 100 | 90 | 70 to 90 |  | 100 |  | Veronica persica, herbicidal activity rated visually (Veronica persica): 100%; Amaranthus retroflexus, herbicidal activity rated visually (Amaranthus retroflexus [14]): 100%; Polygonum convolvulus, herbicidal activity rated visually (Polygonum convolvulus [12]; 1280 g/ha): 90%

Source: patent US20200095241A1, “SUBSTITUTED 1,2,4-THIADIAZOLYLPYRROLONES AND 1,2,4-THIADIAZOLYLHYDANTOINS AND SALTS THEREOF AND USE THEREOF AS HERBICIDES” (Bayer CropScience Aktiengesellschaft, priority 2016, published 2020)
